Results reported in the supplement of paper PMC8092582.
± gives the standard deviation of the averaged measurements.

Tested on: HeLa
Assay: cell viability (CellTiter-Glo) relative to median of lowest-dilution wells of all drugs (fraction); higher = more viable cells
Experimental: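 HeLa control and CRISPR DDX11 knockout cells were seeded in 384-well plates and incubated for 72 h with each of 64 […] drugs at six concentrations. Viability was read with CellTiter-Glo and normalised to the median of the lowest (6th) dilution wells of all drugs. Two biological replicates (BR1, BR2) are averaged; the concentration unit is not stated.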

[1] = drug concentration (unit not stated): 0.04, genotype: DDX11 knockout
[2] = drug concentration (unit not stated): 0.04, genotype: control (DDX11 wild type)
[3] = drug concentration (unit not stated): 0.12, genotype: DDX11 knockout
[4] = drug concentration (unit not stated): 0.12, genotype: control (DDX11 wild type)
[5] = drug concentration (unit not stated): 0.37, genotype: DDX11 knockout
[6] = drug concentration (unit not stated): 0.37, genotype: control (DDX11 wild type)
[7] = drug concentration (unit not stated): 1.11, genotype: DDX11 knockout
[8] = drug concentration (unit not stated): 1.11, genotype: control (DDX11 wild type)
[9] = drug concentration (unit not stated): 3.33, genotype: DDX11 knockout
[10] = drug concentration (unit not stated): 3.33, genotype: control (DDX11 wild type)
[11] = drug concentration (unit not stated): 10, genotype: DDX11 knockout
[12] = drug concentration (unit not stated): 10, genotype: control (DDX11 wild type)
[13] = drug concentration (unit not stated): 0.01, genotype: DDX11 knockout
[14] = drug concentration (unit not stated): 0.01, genotype: control (DDX11 wild type)

Row | SMILES | cell viability [1] | cell viability [2] | cell viability [3] | cell viability [4] | cell viability [5] | cell viability [6] | cell viability [7] | cell viability [8] | cell viability [9] | cell viability [10] | cell viability [11] | cell viability [12] | cell viability [13] | cell viability [14] | cell viability (drug concentration (unit not stated): 30, genotype: DDX11 knockout) | cell viability (drug concentration (unit not stated): 30, genotype: control (DDX11 wild type))
1 | CC(C)(C)Cn1c(N)nc2ccc(-c3[nH]c(C(C)(C)C)nc3-c3ccc(F)cc3)nc21 | 0.937 ± 0.044 | 0.991 ± 0.022 | 0.96 ± 0.11 | 1.03 ± 0.022 | 0.942 ± 0.088 | 0.988 ± 0.15 | 0.921 ± 0.072 | 1.02 ± 0.1 | 0.84 ± 0.03 | 1.06 ± 0.15 | 0.737 ± 0.061 | 1.03 ± 0.25 |  |  |  | 
2 | CO[C@@H](C(=O)N1Cc2[nH]nc(NC(=O)c3ccc(N4CCN(C)CC4)cc3)c2C1)c1ccccc1 | 0.971 ± 0.036 | 0.956 ± 0.032 | 0.877 ± 0.023 | 0.943 ± 0.18 | 0.906 ± 0.032 | 0.943 ± 0.13 | 0.744 ± 0.091 | 0.771 ± 0.065 | 0.624 ± 0.11 | 0.645 ± 0.046 | 0.466 ± 0.043 | 0.58 ± 0.1 |  |  |  | 
3 | COc1ncc(-c2ccc3nccc(-c4ccnnc4)c3c2)cc1NS(=O)(=O)c1ccc(F)cc1F | 0.57 ± 0.044 | 0.661 ± 0.17 | 0.467 ± 0.073 | 0.528 ± 0.19 | 0.33 ± 0.046 | 0.458 ± 0.18 | 0.326 ± 0.042 | 0.416 ± 0.12 | 0.304 ± 0.04 | 0.373 ± 0.12 |  |  | 0.657 ± 0.037 | 0.774 ± 0.23 |  | 
4 | C[C@@H]1COCCN1c1cc(-c2ccnn2C)c2ccnc(-c3ccn[nH]3)c2n1 | 1.03 ± 0.056 | 1.022 ± 0.0024 | 0.981 ± 0.083 | 1.02 ± 0.077 | 0.864 ± 0.021 | 0.959 ± 0.29 | 0.517 ± 0.036 | 0.696 ± 0.19 | 0.313 ± 0.045 | 0.398 ± 0.16 | 0.19 ± 0.086 | 0.227 ± 0.096 |  |  |  | 
5 | O=c1cc(-c2cccc3c2Sc2ccccc2S3)oc(N2CCOCC2)c1 |  |  | 1.06 ± 0.039 | 0.988 ± 0.017 | 1.03 ± 0.027 | 1.01 ± 0.065 | 0.9944 ± 0.005 | 0.9715 ± 0.0052 | 0.963 ± 0.023 | 0.998 ± 0.064 | 0.843 ± 0.048 | 0.951 ± 0.17 |  |  | 0.633 ± 0.053 | 0.854 ± 0.38
6 | Cc1sc2c(c1C)C(c1ccc(Cl)cc1)=N[C@@H](CC(=O)OC(C)(C)C)c1nnc(C)n1-2 [(+)-JQ-1] | 1.02 ± 0.059 | 0.977 ± 0.047 | 0.93 ± 0.14 | 0.962 ± 0.17 | 0.849 ± 0.19 | 0.98 ± 0.49 | 0.671 ± 0.033 | 0.827 ± 0.26 | 0.5507 ± 0.0013 | 0.757 ± 0.2 | 0.5098 ± 0.0035 | 0.637 ± 0.18 |  |  |  | 
7 | CC1(C)CCC(c2ccc(Cl)cc2)=C(CN2CCN(c3ccc(C(=O)NS(=O)(=O)c4ccc(N[C@H](CCN5CCOCC5)CSc5ccccc5)c(S(=O)(=O)C(F)(F)F)c4)cc3)CC2)C1 [ABT-263 (Navitoclax)] | 1.04 ± 0.045 | 0.983 ± 0.041 | 1 ± 0.021 | 1.02 ± 0.076 | 1.04 ± 0.014 | 1.022 ± 0.0018 | 0.976 ± 0.043 | 1.0084 ± 0.00083 | 1.02 ± 0.048 | 1.06 ± 0.058 | 0.841 ± 0.14 | 0.894 ± 0.22 |  |  |  | 
8 | O=C(Nc1c[nH]nc1-c1nc2ccc(CN3CCOCC3)cc2[nH]1)NC1CC1 [AT9283] | 0.94 ± 0.015 | 0.939 ± 0.053 | 1.07 ± 0.076 | 1 ± 0.042 | 1.04 ± 0.046 | 1.07 ± 0.069 | 0.769 ± 0.4 | 0.799 ± 0.063 | 0.469 ± 0.41 | 0.504 ± 0.12 |  |  | 1.03 ± 0.023 | 0.988 ± 0.066 |  | 
9 | CCN(CCO)CCCOc1ccc2c(Nc3cc(CC(=O)Nc4cccc(F)c4)[nH]n3)ncnc2c1 [AZD1152-HQPA (Barasertib)] | 0.927 ± 0.032 | 0.985 ± 0.18 | 0.912 ± 0.066 | 1.01 ± 0.22 | 0.883 ± 0.1 | 0.97 ± 0.28 | 0.888 ± 0.051 | 0.964 ± 0.21 | 0.831 ± 0.027 | 0.957 ± 0.25 | 0.813 ± 0.064 | 0.953 ± 0.23 |  |  |  | 
10 | C=CCn1c(=O)c2cnc(Nc3ccc(N4CCN(C)CC4)cc3)nc2n1-c1cccc(C(C)(C)O)n1 [AZD1775] | 0.9297 ± 0.0031 | 0.962 ± 0.028 | 0.922 ± 0.021 | 0.951 ± 0.021 | 0.85 ± 0.048 | 0.959 ± 0.025 | 0.423 ± 0.12 | 0.615 ± 0.014 | 0.213 ± 0.0052 | 0.288 ± 0.11 | 0.0863 ± 0.058 | 0.092 ± 0.087 |  |  |  | 
11 | C[C@@H]1COCCN1c1cc(C2([S@](C)(=N)=O)CC2)nc(-c2cc[nH]c3nccc2-3)n1 [AZD6738] | 1.04 ± 0.026 | 1.04 ± 0.022 | 1.03 ± 0.046 | 1.03 ± 0.019 | 0.992 ± 0.045 | 0.971 ± 0.022 | 0.862 ± 0.0099 | 0.957 ± 0.13 | 0.648 ± 0.036 | 0.913 ± 0.29 | 0.366 ± 0.094 | 0.55 ± 0.24 |  |  |  | 
12 | NC(=O)Nc1cc(-c2cccc(F)c2)sc1C(=O)N[C@H]1CCCNC1 [AZD7762] | 1.011 ± 0.0048 | 1.04 ± 0.043 | 0.992 ± 0.051 | 0.959 ± 0.023 | 0.819 ± 0.055 | 0.896 ± 0.16 | 0.36 ± 0.022 | 0.647 ± 0.3 | 0.142 ± 0.014 | 0.299 ± 0.12 |  |  | 1.08 ± 0.072 | 1.02 ± 0.025 |  | 
13 | C[C@@H](Nc1cc(F)cc(F)c1)c1cc(C(=O)N(C)C)cc2c(=O)cc(N3CCOCC3)oc12 [AZD8186] | 0.961 ± 0.075 | 1.01 ± 0.036 | 0.946 ± 0.098 | 1.01 ± 0.027 | 0.887 ± 0.049 | 0.952 ± 0.076 | 0.847 ± 0.075 | 0.92 ± 0.12 | 0.764 ± 0.082 | 0.887 ± 0.17 | 0.654 ± 0.13 | 0.908 ± 0.19 |  |  |  | 
14 | CCn1nc(C2CCN(C(=O)CCO)CC2)nc1-c1cnc(N)c(-c2nnc(C(C)(C)C)o2)n1 [AZD8835] | 1.08 ± 0.046 | 1.07 ± 0.014 | 0.987 ± 0.09 | 1.05 ± 0.027 | 0.908 ± 0.098 | 0.988 ± 0.078 | 0.876 ± 0.059 | 0.98 ± 0.12 | 0.803 ± 0.077 | 0.996 ± 0.057 | 0.785 ± 0.052 | 1.05 ± 0.03 |  |  |  | 
15 | CN(Cc1cnc2nc(N)nc(N)c2n1)c1ccc(C(=O)N[C@@H](CCC(=O)O)C(=O)O)cc1 [Abitrexate (Methotrexate)] | 0.79 ± 0.24 | 0.723 ± 0.34 | 0.772 ± 0.21 | 0.665 ± 0.35 | 0.725 ± 0.17 | 0.606 ± 0.33 | 0.462 ± 0.08 | 0.58 ± 0.31 |  |  |  |  | 0.864 ± 0.26 | 0.969 ± 0.64 |  | 
16 | O=c1[nH]cc(F)c(=O)[nH]1 [Adrucil (Fluorouracil)] | 1 ± 0.034 | 0.976 ± 0.016 | 1.03 ± 0.046 | 1 ± 0.031 | 1.06 ± 0.046 | 1.03 ± 0.032 | 1.01 ± 0.073 | 1.05 ± 0.23 | 0.928 ± 0.26 | 1.02 ± 0.45 | 0.817 ± 0.14 | 0.945 ± 0.37 |  |  |  | 
17 | COc1cc(Nc2ncc3c(n2)-c2ccc(Cl)cc2C(c2c(F)cccc2OC)=NC3)ccc1C(=O)O [Alisertib] | 0.996 ± 0.016 | 1.03 ± 0.1 | 0.752 ± 0.019 | 0.966 ± 0.34 | 0.7 ± 0.092 | 0.844 ± 0.23 | 0.859 ± 0.029 | 0.919 ± 0.16 | 0.781 ± 0.041 | 0.827 ± 0.12 |  |  | 1.056 ± 0.0065 | 1.044 ± 0.0066 |  | 
18 | CN1CC[C@H](c2c(O)cc(O)c3c(=O)cc(-c4ccccc4Cl)oc23)[C@H](O)C1 [Alvocidib (Flavopiridol)] | 1.11 ± 0.067 | 1.09 ± 0.031 | 0.972 ± 0.013 | 1.16 ± 0.29 | 0.106 ± 0.023 | 0.172 ± 0.022 | 0.163 ± 0.036 | 0.244 ± 0.086 | 0.0793 ± 0.033 | 0.11 ± 0.0096 |  |  | 1.03 ± 0.079 | 1.02 ± 0.067 |  | 
19 | C[C@@]1(CO)[C@H](O)CC[C@@]2(C)[C@H]1CC[C@H]1C[C@@H]3C[C@@]12CC[C@]3(O)CO [Aphidicolin] | 1.02 ± 0.036 | 1.06 ± 0.031 | 1.06 ± 0.089 | 1.08 ± 0.11 | 0.91 ± 0.027 | 1.06 ± 0.24 | 0.58 ± 0.046 | 0.79 ± 0.27 | 0.428 ± 0.045 | 0.523 ± 0.16 | 0.182 ± 0.027 | 0.23 ± 0.13 |  |  |  | 
20 | Nc1ncn([C@@H]2O[C@H](CO)[C@@H](O)[C@H]2O)c(=O)n1 [Azacitidine] | 1.03 ± 0.04 | 1.03 ± 0.044 | 1.03 ± 0.019 | 1.04 ± 0.0078 | 1.01 ± 0.046 | 1.05 ± 0.021 | 1.0191 ± 0.00066 | 1.05 ± 0.013 | 1.05 ± 0.063 | 1.03 ± 0.028 | 0.872 ± 0.12 | 0.89 ± 0.28 |  |  |  | 
